Experiments:
[1] = non-nano salsalate 3.0, 3.5, 4.0 g/d vs placebo, type two diabetes, P=0.003, FIG. 28A; cited from earlier work
[2] = studies of 3 weeks or more in duration; cited from earlier work
pH of salsalate in water = assay type: physicochemical
Procedure: The pH of salsalate in water was slightly below 4, so no pH adjustment was attempted. The samples were analyzed using Horiba light scattering particle size distributions (PSD). One of several acceptable formulations was selected to scale up to a higher concentration of API using high speed media milling.

[3] = Particle size analysis, Horiba light scattering; oral excipient screen (Example 1); assay type: physicochemical; details: unmilled aqueous suspension of 5% salsalate, FIG. 1B
Procedure: The pH of salsalate in water was slightly below 4, so no pH adjustment was attempted. The samples were analyzed using Horiba light scattering particle size distributions (PSD). One of several acceptable formulations was selected to scale up to a higher concentration of API using high speed media milling. […] Eight different aqueous nanosuspensions of salsalate, with differing surfactants or combinations of surfactants, were prepared and analyzed for particle size. The first 7 formulations were made by roller milling with a Roller-Mill RM20 (ZOZ GmbH) with YTZ-800 grinding media (Tosoh Corp.) at 192 rpm. The 8th formulation was made via high speed media milling (5000 rpm). The particle sizes of the resultant compositions were then analyzed using a Horiba light scattering particle size analyzer. The compositions and results of the particle size analyses are shown below in Table 2 and in FIGS. 2A, 2B, 3A, 3B etc. through 9A and 9B.

[4] = in terms of salicylic acid equivalents; cited from earlier work

- pH of salsalate in water (pH of salsalate in water): below 4
- D90 particle size [3]: 435 μm
- mean particle size [3]: 244 μm
- median particle size [3]: 222.24 μm
Structure (SMILES): O=C(Oc1ccccc1C(=O)O)c1ccccc1O [salsalate, 2-hydroxybenzoyloxy benzoic acid]
- HbAlc level over time, F test for the overall effect of treatment group [1]: significant
- study withdrawal from the salsalate group for any reason [2]: 17-38%
- salicylic acid obtained relative to an equivalent dose of aspirin, based on relative AUC values [4]: approximately 84%

— patent US11819488B2, “Nanosuspensions of salsalate and methods of using the same” (RHNanoPharma, priority 2018, dated 2023)
